Test results as given in patent publication US8440610B2, “Mapkap kinase-2 as a specific target for blocking proliferation of P53-defective cells” (Massachusetts Institute of Technology, priority 2004, dated 2013).

Legend:
U2OS cells [1] = experiment: FACS cell cycle analysis (PI, phospho-histone H3) in U2OS cells; type: cell-based, human; settings: MAPKAP kinase-2 depleted U2OS cells; 10 μM drug, nocodazole added three hours later, thirty hours
Description: Asynchronous MAPKAP kinase-2 or luciferase shRNA knockdown cells were mock treated or exposed to doxorubicin for thirty hours, and cell cycle progression was monitored by FACS. In one set of experiments, the spindle poison nocodazole was added to the media three hours after addition of doxorubicin, to cause any cells progressing through the cell cycle to arrest in mitosis. DNA content was monitored by PI staining; phospho-histone-H3 staining was used as an indicator of mitotic entry. As shown in the left panels of FIG. 14A, treatment of control luciferase shRNA knockdown cells with doxorubicin led to the accumulation of cells with 4N DNA content, and a lack of phospho-histone-H3 staining in either the absence or presence of nocodazole. The cells expressing the luciferase shRNAs behaved identically to the untransfected doxorubicin-treated control U2OS cell population (FIG. 24B), with the prominent 4N DNA component and the absence of phospho-histone-H3 staining indicative of an intact G2/M checkpoint.
In contrast to the G2/M checkpoint response observed in doxorubicin-treated cells, treatment with the DNA intra-strand cross-linker cisplatin caused U2OS cells to predominantly accumulate in the G1 and S phases of the cell cycle over the subsequent thirty hours (FIG. 24C). RNA interference was used to investigate the role of MAPKAP kinase-2 in this process. […] Strikingly, when nocodazole was added three hours following cisplatin addition, the MAPKAP kinase-2 depleted cells accumulated in a 4N DNA containing peak with ˜42% of the cells staining strongly for phospho-histone H3. Identical results were obtained in cells treated with a second unrelated siRNA sequence against MAPKAP kinase-2.
FACS analysis. UV irradiation was performed at 254 nm (UV-C) using a Stratalinker 2400 (Stratagene). U2OS cells were fixed in 70% ethanol overnight at −20° C., permeabilized with PBS containing 0.2% Triton X-100 for twenty minutes at 4° C., blocked with 2% FBS in PBS, and incubated with 1 μg of anti-phospho-histone H3 per 10^6 cells for sixty minutes on ice. […]

p53−/− MEFs = experiment: FACS cell cycle analysis (PI, phospho-histone H3) in p53−/− MEFs; type: cell-based, mouse; settings: MK2 depleted p53−/− MEFs; 10 μM drug, nocodazole added three hours later, thirty hours
Description: FACS analysis. UV irradiation was performed at 254 nm (UV-C) using a Stratalinker 2400 (Stratagene). U2OS cells were fixed in 70% ethanol overnight at −20° C., permeabilized with PBS containing 0.2% Triton X-100 for twenty minutes at 4° C., blocked with 2% FBS in PBS, and incubated with 1 μg of anti-phospho-histone H3 per 10^6 cells for sixty minutes on ice. Following washing, cells were incubated with FITC-conjugated goat anti-rabbit antibody (diluted 1:500) for thirty minutes on ice, washed, and resuspended in PBS containing 50 μg/ml PI for twenty minutes immediately prior to FACS analysis. Analysis was performed using a Becton Dickinson FACS machine with CellQuest software.
To investigate the molecular mechanisms involved in MK2 dependent responses to DNA lesions, we examined cell cycle profiles of control and MK2 depleted p53^−/− MEFs. Asynchronous MK2- or control knock-down p53^−/− MEFs were mock treated or exposed to doxorubicin for thirty hour, and cell cycle distribution monitored by FACS. In one set of experiments the spindle poison nocodazole was added to the media three hours after addition of doxorubicin, to cause any cells progressing through the cell cycle to arrest in mitosis. DNA content was monitored by PI staining; phospho-histone-H3 staining was used as an indicator of mitotic entry. […]

U2OS cells [2] = experiment: Clonogenic survival assay in U2OS cells; type: cell-based, human; settings: 10 μM cisplatin or 1 μM doxorubicin for eight hours, colonies after eight days
Description: The experiments in FIGS. 15A-15C and 16A-16D indicate that MAPKAP kinase-2 is critical for cisplatin- and doxorubicin-triggered G1/S and G2/M arrest. These checkpoint defects in MAPKAP kinase-2 depleted cells might render them more sensitive to the antiproliferative and cytotoxic effects of chemotherapy. To investigate this, control or MAPKAP kinase-2 knockdown U2OS cells were mock treated or incubated with increasing doses of cisplatin or doxorubicin for eight hours, washed, trypsinized and replated, and assayed for colony formation eight days later (FIGS. 16A-16B). […] For example, luciferase shRNA cells treated with either 10 μM cisplatin or 1 μM doxorubicin formed ˜40% of the number of colonies as those formed by untreated cells, while in MAPKAP kinase-2-depleted cells, these same cisplatin and doxorubicin treatments reduced the number of colonies to only 4% and 2%, respectively, of those seen in the untreated cells.
Clonogenic survival assay. Cells were either mock-treated or treated with increasing doses of doxorubicin or cisplatin. After eight hours of treatment, cells were washed three times with growth media and three times with PBS, trypsinized and replated at a concentration of 5000 cells/10 cm^2 dish. After eight days, cells were fixed and stained with 0.1% crystal violet (Sigma-Aldrich). Colonies consisting of >50 cells were counted, and surviving fractions were determined by normalization against untreated cells. Experiments were performed in triplicate and are plotted as mean values with standard deviations indicated by the error bars.

[3] = MAPKAP kinase-2-depleted U2OS cells

| SMILES | cells staining positively for phospho-histone H3 (U2OS cells [1]) | cells staining positively for phospho-histone H3 (p53−/− MEFs) | number of colonies relative to untreated cells (U2OS cells [2]; [3]) | number of colonies relative to untreated cells (U2OS cells [2]; luciferase shRNA U2OS cells) |
| --- | --- | --- | --- | --- |
| N.N.[Cl][Pt][Cl] [cisplatin] | ~42% | ~25% | 4% | ~40% |
| COc1cccc2c1C(=O)c1c(O)c3c(c(O)c1C2=O)C[C@@](O)(C(=O)CO)C[C@@H]3O[C@H]1C[C@H](N)[C@H](O)[C@H](C)O1 [doxorubicin] | 36.3% | 28.5% | 2% | ~40% |
